Data on eight molecules can be found in PubChem BioAssay (NCI).

Molecules are shown by their SMILES.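 Five compound concentrations were applied to cells in 96-well plates for 48 hours; endpoints were derived by simple linear interpolation of the resulting dose-response curve. Here, GI50 denotes the concentration required for 50% inhibition of growth. TGI is the concentration that stops growth completely.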

Test systems include COLO 205 colon; DU-145 prostate; HS 578T breast; OVCAR-8 ovarian; PC-3 prostate; SK-OV-3 ovarian; SN12C renal; T-47D breast; U251 CNS; UACC-257 melanoma.
What all share (experiment): growth of human tumour cells (NCI), 48 h

For `Cc1ccc(-c2nc(N)c(C#N)c3c2CCOc2c-3ccc3ccccc23)cc1`, the GI50 is 0.418 µM in the experiment with COLO 205 colon; 2.04 µM in the experiment with DU-145 prostate; 0.227 µM with HS 578T breast; 2.28 µM with OVCAR-8 ovarian; 0.186 µM in the experiment with PC-3 prostate; 3.42 µM in the experiment with SK-OV-3 ovarian. The GI50 with SN12C renal was 12.3 µM; in the experiment with T-47D breast, 0.954 µM; in the experiment on U251 CNS, 0.222 µM; with UACC-257 melanoma, 0.474 µM. The TGI in the experiment on COLO 205 colon is over 100 µM; with DU-145 prostate it was 17.2 µM; in the experiment with HS 578T breast, 1.51 µM; in the experiment on OVCAR-8 ovarian, 27.8 µM; in the experiment with PC-3 prostate, 7.51 µM; in the experiment with SN12C renal, 53.9 µM. Also, the TGI with T-47D breast was 45.9 µM; with U251 CNS, 4.25 µM; in the experiment with UACC-257 melanoma, over 100 µM.
Regarding `N#CCCSC(=S)C1CCCC1=N` (centres undefined), the TGI in the experiment with COLO 205 colon, with DU-145 prostate, with HS 578T breast, with OVCAR-8 ovarian, in the experiment on PC-3 prostate and in the experiment with SK-OV-3 ovarian was over 100 µM throughout. The TGI in the experiment with SN12C renal, with T-47D breast, with U251 CNS and in the experiment with UACC-257 melanoma was over 100 µM throughout.
Take `COc1ccc(OC)c(/C=C2\COc3ccc(O)c(O)c3C2=O)c1`: the GI50 in the experiment with COLO 205 colon is 3.22 µM; in the experiment on DU-145 prostate, 2.27 µM; in the experiment on HS 578T breast, 5.3 µM; in the experiment with OVCAR-8 ovarian, 3.05 µM; in the experiment on PC-3 prostate, 1.82 µM; in the experiment with SK-OV-3 ovarian, 6.94 µM. The GI50 in the experiment with SN12C renal is 2.55 µM; with T-47D breast it was 2.64 µM; in the experiment with U251 CNS, 2.21 µM; in the experiment on UACC-257 melanoma it was 2.43 µM. For the same molecule, the TGI was determined as 9.51 µM in the experiment on COLO 205 colon; 7.28 µM in the experiment on DU-145 prostate; 36.8 µM in the experiment with HS 578T breast; 27 µM in the experiment with OVCAR-8 ovarian; 6.82 µM in the experiment with PC-3 prostate; 22.5 µM in the experiment with SK-OV-3 ovarian. Moreover, the TGI in the experiment on SN12C renal turned out to be 11.7 µM; with T-47D breast, 15.2 µM; in the experiment on U251 CNS, 10.5 µM; with UACC-257 melanoma it was 7.82 µM.
Regarding `CC1(C)N=C(N)N=C(N)N1c1cccc(CCCCOc2ccccc2)c1`, the GI50 in the experiment with COLO 205 colon is 0.0222 µM; in the experiment with DU-145 prostate, 0.0626 µM; with HS 578T breast, 10.2 µM; in the experiment with OVCAR-8 ovarian, 0.465 µM; with PC-3 prostate, under 0.01 µM; in the experiment on SK-OV-3 ovarian, 1.91 µM. Also, the GI50 was 0.14 µM with SN12C renal, 1.62 µM with T-47D breast, 0.0488 µM with U251 CNS and 0.381 µM in the experiment on UACC-257 melanoma. Also, the TGI is 14.4 µM in the experiment on COLO 205 colon; over 100 µM with DU-145 prostate; 37.3 µM with HS 578T breast; over 100 µM in the experiment with OVCAR-8 ovarian; 9.96 µM with PC-3 prostate; over 100 µM with SK-OV-3 ovarian. For the same molecule, the TGI in the experiment with SN12C renal stood at 46.1 µM; in the experiment with T-47D breast, 30.1 µM; in the experiment with U251 CNS it was 55.7 µM; with UACC-257 melanoma it was 23.5 µM.
As to `CSC1=Nc2c(c(C)c(C)n2COC(CO)CO)C2=NC(=O)CC(C)N12` (centres undefined), the GI50 with COLO 205 colon, in the experiment with DU-145 prostate, in the experiment on HS 578T breast, in the experiment with OVCAR-8 ovarian, in the experiment on PC-3 prostate and with SK-OV-3 ovarian was over 100 µM in each case. The GI50 in the experiment on SN12C renal, in the experiment with T-47D breast, in the experiment with U251 CNS and with UACC-257 melanoma was over 100 µM throughout. Also, the TGI with COLO 205 colon, with DU-145 prostate, in the experiment with HS 578T breast, with OVCAR-8 ovarian, in the experiment on PC-3 prostate and with SK-OV-3 ovarian was over 100 µM throughout. Also, the TGI with SN12C renal, in the experiment on T-47D breast, in the experiment with U251 CNS and with UACC-257 melanoma was over 100 µM throughout.
`O=C(O)CP(=O)(O)O`: the TGI in the experiment on COLO 205 colon, in the experiment on DU-145 prostate, in the experiment with HS 578T breast, with OVCAR-8 ovarian, in the experiment on PC-3 prostate and in the experiment on SK-OV-3 ovarian was over 100 µM throughout. The TGI in the experiment with SN12C renal, in the experiment on T-47D breast, with U251 CNS and in the experiment on UACC-257 melanoma was over 100 µM each time.
On to `O=C1/C(=C/c2ccccc2F)CN(C(=O)C(Cl)Cl)C/C1=C\c1ccccc1F`, for which the GI50 with COLO 205 colon was 0.711 µM; in the experiment with DU-145 prostate it was 1.01 µM; in the experiment on HS 578T breast, 0.985 µM; in the experiment on OVCAR-8 ovarian, 0.313 µM; in the experiment with PC-3 prostate, 0.296 µM; with SK-OV-3 ovarian, 1.65 µM. Besides, the GI50 is 0.244 µM in the experiment on SN12C renal, 0.71 µM with T-47D breast, 0.213 µM in the experiment with U251 CNS and 1.08 µM in the experiment on UACC-257 melanoma. Moreover, the TGI with COLO 205 colon turned out to be 2.57 µM; in the experiment on DU-145 prostate, 2.35 µM; with HS 578T breast, 5.51 µM; in the experiment with OVCAR-8 ovarian, 1.11 µM; in the experiment on PC-3 prostate, 1.08 µM; in the experiment on SK-OV-3 ovarian, 3.28 µM. Further, the TGI in the experiment with SN12C renal was 0.691 µM; with T-47D breast, 3.97 µM; in the experiment on U251 CNS, 0.665 µM; in the experiment on UACC-257 melanoma, 3.19 µM.
As for `O=C1CCC(N2Cc3c(C#CCCCNC(=O)c4cc5c(o4)C(=O)c4ccccc4C5=O)cccc3C2=O)C(=O)N1` (centres undefined), the GI50 with COLO 205 colon is 2.3 µM; in the experiment on DU-145 prostate, 1.82 µM; with HS 578T breast it was 2.39 µM; with OVCAR-8 ovarian it was 3.24 µM; in the experiment on PC-3 prostate, 2.95 µM; with SK-OV-3 ovarian, 15.9 µM. Moreover, the GI50 was 1.69 µM in the experiment with SN12C renal, 3.16 µM in the experiment on T-47D breast, 2.87 µM with U251 CNS and 2 µM with UACC-257 melanoma. Moreover, the TGI in the experiment with COLO 205 colon was determined as 6.01 µM; in the experiment on DU-145 prostate it was 3.28 µM; in the experiment on HS 578T breast it was 5.64 µM; in the experiment with OVCAR-8 ovarian, 87 µM; with PC-3 prostate, 56.2 µM; in the experiment with SK-OV-3 ovarian it was 30.4 µM. The TGI in the experiment with SN12C renal worked out at 3.25 µM; with T-47D breast it was 11.9 µM; in the experiment on U251 CNS it was 8.07 µM; with UACC-257 melanoma, 4.48 µM.
